Measured values as given in US8536202B2, “Triazole-substituted anthranilamides as pesticides” (Bayer Cropscience AG, priority 2010, dated 2013).
Where two headings read alike, the source gives them in different places.

Tests used:
[1] = test system: larvae of the mustard beetle (Phaedon cochleariae); assay: Phaedon test (PHAECO spray treatment); format: in vivo; settings: 168 h, read-out: activity in %
Procedure: Solvents: 78.0 parts by weight of acetone • • 1.5 parts by weight of dimethylformamide
Emulsifier: 0.5 part by weight of alkylaryl polyglycol ether
An appropriate preparation of active compound is prepared by mixing 1 part by weight of active compound with the stated amounts of solvent and emulsifier and diluting the concentrate with emulsifier-containing water to the desired concentration.
After 7 days, the activity in % is ascertained. Here, 100% means that all of the beetle larvae have been killed; 0% means that no beetle larvae have been killed.

[2] = test system: caterpillars of the armyworm (Spodoptera frugiperda); assay: Spodoptera frugiperda test (SPODFR spray treatment); format: in vivo; settings: 168 h; for pest or weed control at 100 g/ha: read-out: activity in %
Procedure, shortened: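 Maize leaf discs sprayed with compound diluted in emulsifier-containing water (acetone/DMF solvent, alkylaryl polyglycol ether emulsifier), dried, then infested with armyworm caterpillars. Kill scored after 7 days as % mortality, 100% = all caterpillars dead, 0% = none.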

[3] = log P determination by HPLC on reversed-phase columns (EEC Directive 79/831 Annex V.A8); format: physicochemical; settings: pH 2.7
Procedure, shortened: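 log P from reversed-phase LC-MS retention at pH 2.7, 0.1% formic acid water/acetonitrile gradient 10–95% acetonitrile. Calibrated against C3–C16 unbranched alkan-2-ones, interpolating linearly between adjacent alkanones.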

[4] = reversed-phase C18 HPLC column, HPLC on reversed-phase columns (C 18), EEC Directive 79/831 Annex V.A8, read-out: logP
[5] = HPLC on reversed-phase columns (C 18), EEC Directive 79/831 Annex V.A8, read-out: logP

SMILES | pest or weed control at 100 g/ha ([1]; 100 g/ha, after 7 days) [%] | pest or weed control at 100 g/ha ([2]; 100 g/ha, after 7 days) [%] | chromatographic logP [3, 4] | chromatographic logP [3] | pest or weed control at 20 g/ha ([2]; after 7 days) [%] | pest or weed control at 100 g/ha [1] [%] | pest or weed control at 100 g/ha [2] [%] | chromatographic logP [3, 5]
Cc1cc(Cl)cc(C(=O)NCC2CC2)c1NC(=O)c1cc(Cn2cc(C(F)(C(F)(F)F)C(F)(F)F)nn2)nn1-c1ncccc1Cl [Example 229] | 100 | 100 | 3.91 | – | – | – | – | –
CNC(=O)c1cc(Cl)cc(C)c1NC(=O)c1cc(Cn2nc3cc(OC(F)(F)F)cc(Br)c3n2)nn1-c1ncccc1Cl [Example 91] | 100 | 100 | – | 4.17 | – | – | – | –
Cc1cc(Cl)cc(C(=O)NCC2CC2)c1NC(=O)c1cc(Cn2cc(C(F)(F)F)nn2)nn1-c1ncccc1Cl [Example 195] | 100 | 100 | – | 3.22 | – | – | – | –
Cc1cc(I)cc(C(=O)NCC2CC2)c1NC(=O)c1cc(Cn2ncc(C(F)(F)C(F)(F)F)n2)nn1-c1ncccc1Cl [Example 345] | 100 | 100 | – | 4.22 | – | – | – | –
Cc1cc(I)cc(C(=O)NC(C)(C)C)c1NC(=O)c1cc(Cn2ncc(C(F)(C(F)(F)F)C(F)(F)F)n2)nn1-c1ncccc1Cl [Example 268] | 100 | 100 | 4.9 | – | – | – | – | –
Cc1cc(Cl)cc(C(=O)NC(C)(C)C)c1NC(=O)c1cc(Cn2cc(-c3ccc(F)cc3)nn2)nn1-c1ncccc1Cl [Example 45] | 100 | 100 | – | 3.63 | – | – | – | –
O=C(NCC1CC1)c1cc(Cl)cc(Cl)c1NC(=O)c1cc(Cn2ncc(C(F)(C(F)(F)F)C(F)(F)F)n2)nn1-c1ncccc1Cl [Example 277] | 100 | 100 | 4.23 | – | – | – | – | –
O=C(NCC1CC1)c1cc(Cl)cc(Cl)c1NC(=O)c1cc(Cn2cc(C(F)(F)F)nn2)nn1-c1ncccc1Cl [Example 204] | 100 | 100 | – | 3.14 | – | – | – | –
Cc1cc(Cl)cc(C(=O)NCC2CC2)c1NC(=O)c1cc(Cn2ncc(C(F)(F)F)n2)nn1-c1ncccc1Cl [Example 141] | 100 | 100 | – | 3.55 | – | – | – | –
Cc1cc(C#N)cc(C(N)=O)c1NC(=O)c1cc(Cn2cc(-c3ccc(C(F)(F)F)cc3)nn2)nn1-c1ncccc1Cl [Example 2] | 100 | 100 | – | 2.81 | – | – | – | –
Cc1cc(Cl)cc(C(=O)NC(C)C2CC2)c1NC(=O)c1cc(Cn2nc(C(F)(F)F)c(C(F)(F)F)n2)nn1-c1ncccc1Cl (stereo not drawn) [Example 410] | 100 | 100 | – | 4.5 | – | – | – | –
CNC(=O)c1cc(C#N)cc(C)c1NC(=O)c1cc(Cn2nnc3cc(Br)c(C(F)(F)F)cc32)nn1-c1ncccc1Cl [Example 97] | 100 | 100 | – | 3.27 | – | – | – | –
Cc1cc(I)cc(C(=O)NC(C)C2CC2)c1NC(=O)c1cc(Cn2nc(C(F)(F)F)c(C(F)(F)F)n2)nn1-c1ncccc1Cl (stereo not drawn) [Example 391] | 100 | 100 | – | 4.76 | – | – | – | –
Cc1cc(I)cc(C(=O)NC2CC2)c1NC(=O)c1cc(Cn2cc(C(F)(F)C(F)(F)F)nn2)nn1-c1ncccc1Cl [Example 310] | 100 | 100 | – | 3.49 | – | – | – | –
CC(NC(=O)c1cc(Cl)cc(Cl)c1NC(=O)c1cc(Cn2cc(C(F)(F)F)nn2)nn1-c1ncccc1Cl)C1CC1 (stereo not drawn) [Example 198] | 100 | 100 | – | 3.38 | – | – | – | –
Cc1cc(I)cc(C(=O)NC(C)C)c1NC(=O)c1cc(Cn2cc(C(F)(F)F)nn2)nn1-c1ncccc1Cl [Example 210] | 100 | 100 | – | 3.38 | – | – | – | –

SMILES | pest or weed control at 100 g/ha ([1]; 100 g/ha, after 7 days) [%] | pest or weed control at 100 g/ha ([2]; 100 g/ha, after 7 days) [%] | chromatographic logP [3, 4] | chromatographic logP [3] | pest or weed control at 20 g/ha ([2]; after 7 days) [%] | pest or weed control at 100 g/ha [1] [%] | pest or weed control at 100 g/ha [2] [%] | chromatographic logP [3, 5]
Cc1cc(C#N)cc(C(=O)NC(C)(C)C)c1NC(=O)c1cc(Cn2nc3ccc(C(F)(F)F)cc3n2)nn1-c1ncccc1Cl [Example 114] | 100 | 100 | – | 3.94 | – | – | – | –
Cc1cc(I)cc(C(=O)NCC2CC2)c1NC(=O)c1cc(Cn2ncc(C(F)(C(F)(F)F)C(F)(F)F)n2)nn1-c1ncccc1Cl [Example 269] | 100 | 100 | 4.58 | – | – | – | – | –
Cc1cc(C#N)cc(C(=O)NC2CC2)c1NC(=O)c1cc(Cn2ncc(C(F)(C(F)(F)F)C(F)(F)F)n2)nn1-c1ncccc1Cl [Example 256] | 100 | 100 | 3.63 | – | – | – | – | –
CCNC(=O)c1cc(C#N)cc(C)c1NC(=O)c1cc(Cn2nc(C(F)(F)F)c(C(F)(F)F)n2)nn1-c1ncccc1Cl [Example 397] | 100 | 100 | – | 3.61 | – | – | – | –
CNC(=O)c1cc(C#N)cc(C)c1NC(=O)c1cc(Cn2ncc(-c3ccc(F)cc3)n2)nn1-c1ncccc1Cl [Example 40] | 100 | 100 | – | 2.96 | – | – | – | –
CCNC(=O)c1cc(Cl)cc(C)c1NC(=O)c1cc(Cn2ncc(C(F)(F)F)n2)nn1-c1ncccc1Cl [Example 138] | 100 | 100 | – | 3.26 | – | – | – | –
CC(C)(C)NC(=O)c1cc(Cl)cc(Cl)c1NC(=O)c1cc(Cn2ncc(C(F)(C(F)(F)F)C(F)(F)F)n2)nn1-c1ncccc1Cl [Example 276] | 100 | 100 | 4.53 | – | – | – | – | –
CSC[C@H](C)NC(=O)c1cc(Cl)cc(Cl)c1NC(=O)c1cc(Cn2ncc(C(F)(C(F)(F)F)C(F)(F)F)n2)nn1-c1ncccc1Cl [Example 278] | 100 | 100 | 4.38 | – | – | – | – | –
CC(NC(=O)c1cc(Cl)cc(Cl)c1NC(=O)c1cc(Cn2ncc(C(F)(C(F)(F)F)C(F)(F)F)n2)nn1-c1ncccc1Cl)C1CC1 (stereo not drawn) [Example 274] | 100 | – | 4.49 | – | 100 | – | – | –
Cc1cc(C#N)cc(C(=O)NC(C)(C)C)c1NC(=O)c1cc(Cn2nnc3cc(C(F)(F)F)ccc32)nn1-c1ncccc1Cl [Example 113] | 100 | 100 | – | 3.5 | – | – | – | –
Cc1cc(I)cc(C(=O)NC2CC2)c1NC(=O)c1cc(Cn2cc(C(F)(C(F)(F)F)C(F)(F)F)nn2)nn1-c1ncccc1Cl [Example 240] | 100 | 100 | – | 3.83 | – | – | – | –
CCNC(=O)c1cc(I)cc(C)c1NC(=O)c1cc(Cn2ncc(C(F)(F)C(F)(F)F)n2)nn1-c1ncccc1Cl [Example 355] | 100 | 100 | – | 3.89 | – | – | – | –
CCNC(=O)c1cc(I)cc(C)c1NC(=O)c1cc(Cn2ncc(C(F)(F)C(F)(F)C(F)(F)F)n2)nn1-c1ncccc1Cl [Example 369] | – | – | – | – | – | 100 | 100 | 4.28
Cc1cc(I)cc(C(=O)NC2CC2)c1NC(=O)c1cc(Cn2cc(C(F)(F)C(F)(F)C(F)(F)F)nn2)nn1-c1ncccc1Cl [Example 323] | – | – | – | – | – | 100 | 100 | 3.82
CNC(=O)c1cc(C#N)cc(C)c1NC(=O)c1cc(Cn2cc(-c3ccc(Cl)cc3Cl)nn2)nn1-c1ncccc1Cl [Example 34] | 100 | 100 | – | 3.2 | – | – | – | –
CSC[C@H](C)NC(=O)c1cc(I)cc(C)c1NC(=O)c1cc(Cn2ncc(C(F)(C(F)(F)F)C(F)(F)F)n2)nn1-c1ncccc1Cl [Example 270] | 100 | – | 4.73 | – | 100 | – | – | –
